pIC50: −log10 of the molar value.
What was measured:
IKZF1 = IKZF1 (Homo sapiens (Human), UniProt Q13422+Q96SW2); assay: Western blot, substrate protein expression in hPBMC: IKZF1; assay type: cell-based; conditions: hPBMC, compound 500 nM, 24 hours, Western blot
How it was run: (§1)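 hPBMC, 1×10^6 cells/mL, 24 h compound exposure; RIPA lysis, BCA protein assay, SDS-PAGE, NC membrane immunoblot. Densitometry vs internal control → % protein remaining; degradation % = 100% − remaining; DC50 = conc. at 50% of DMSO band signal.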

[1] = target: human Cereblon WT GST-tagged protein (Homo sapiens (Human), UniProt Q96SW2); assay: CRBN-binding affinity, HTRF (CEREBLON BINDING kit, CISBIO); conditions: HTRF inhibitory activity
How it was run: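 HTRF competition format: test compound displaces Thalidomide-Red from GST-tagged human Cereblon WT, detected with a Eu-labelled anti-GST antibody. Percent CRBN binding inhibition was derived from the 620 nm signal, normalized to solvent-control and protein-free blank wells.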

IKZF3 = IKZF3 (Homo sapiens (Human), UniProt Q96SW2+Q9UKT9); assay: Western blot, substrate protein expression in hPBMC: IKZF3; assay type: cell-based; conditions: hPBMC, compound 500 nM, 24 hours, Western blot
How it was run: as §1

GSPT1 = GSPT1 (Homo sapiens (Human), UniProt P15170+Q96SW2); assay: Western blot, substrate protein expression in hPBMC: GSPT1; assay type: cell-based; conditions: hPBMC, compound 500 nM, 24 hours, Western blot
How it was run: as §1

Chain of IKZF3 (Q9UKT9 whole entry): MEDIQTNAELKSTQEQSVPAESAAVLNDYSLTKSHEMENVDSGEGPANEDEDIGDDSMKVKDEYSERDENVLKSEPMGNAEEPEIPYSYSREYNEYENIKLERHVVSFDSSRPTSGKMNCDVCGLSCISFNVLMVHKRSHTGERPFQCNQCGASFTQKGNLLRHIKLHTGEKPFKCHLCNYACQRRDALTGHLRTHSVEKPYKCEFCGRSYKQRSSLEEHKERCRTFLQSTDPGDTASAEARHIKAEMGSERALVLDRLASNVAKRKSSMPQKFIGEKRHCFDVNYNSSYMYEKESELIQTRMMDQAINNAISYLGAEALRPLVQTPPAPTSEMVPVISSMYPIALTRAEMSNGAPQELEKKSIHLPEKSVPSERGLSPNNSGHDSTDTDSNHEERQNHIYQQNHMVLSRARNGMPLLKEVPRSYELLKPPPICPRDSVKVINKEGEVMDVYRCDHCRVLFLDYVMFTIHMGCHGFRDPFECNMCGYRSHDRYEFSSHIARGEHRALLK
Chain of IKZF3 (Q96SW2 whole entry): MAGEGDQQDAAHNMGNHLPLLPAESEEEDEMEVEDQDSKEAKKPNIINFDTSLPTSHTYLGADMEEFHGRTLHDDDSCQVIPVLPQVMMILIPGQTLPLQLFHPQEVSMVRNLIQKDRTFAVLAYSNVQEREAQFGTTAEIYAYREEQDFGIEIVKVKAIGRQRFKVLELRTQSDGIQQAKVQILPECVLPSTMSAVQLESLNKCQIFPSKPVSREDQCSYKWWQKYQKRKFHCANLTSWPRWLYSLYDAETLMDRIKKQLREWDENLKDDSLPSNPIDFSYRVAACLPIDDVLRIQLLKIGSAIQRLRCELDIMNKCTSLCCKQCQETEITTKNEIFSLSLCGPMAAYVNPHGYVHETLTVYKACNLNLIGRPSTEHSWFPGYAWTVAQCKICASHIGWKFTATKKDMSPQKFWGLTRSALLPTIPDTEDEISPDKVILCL
Chain of IKZF3 (Q16531 whole entry partner): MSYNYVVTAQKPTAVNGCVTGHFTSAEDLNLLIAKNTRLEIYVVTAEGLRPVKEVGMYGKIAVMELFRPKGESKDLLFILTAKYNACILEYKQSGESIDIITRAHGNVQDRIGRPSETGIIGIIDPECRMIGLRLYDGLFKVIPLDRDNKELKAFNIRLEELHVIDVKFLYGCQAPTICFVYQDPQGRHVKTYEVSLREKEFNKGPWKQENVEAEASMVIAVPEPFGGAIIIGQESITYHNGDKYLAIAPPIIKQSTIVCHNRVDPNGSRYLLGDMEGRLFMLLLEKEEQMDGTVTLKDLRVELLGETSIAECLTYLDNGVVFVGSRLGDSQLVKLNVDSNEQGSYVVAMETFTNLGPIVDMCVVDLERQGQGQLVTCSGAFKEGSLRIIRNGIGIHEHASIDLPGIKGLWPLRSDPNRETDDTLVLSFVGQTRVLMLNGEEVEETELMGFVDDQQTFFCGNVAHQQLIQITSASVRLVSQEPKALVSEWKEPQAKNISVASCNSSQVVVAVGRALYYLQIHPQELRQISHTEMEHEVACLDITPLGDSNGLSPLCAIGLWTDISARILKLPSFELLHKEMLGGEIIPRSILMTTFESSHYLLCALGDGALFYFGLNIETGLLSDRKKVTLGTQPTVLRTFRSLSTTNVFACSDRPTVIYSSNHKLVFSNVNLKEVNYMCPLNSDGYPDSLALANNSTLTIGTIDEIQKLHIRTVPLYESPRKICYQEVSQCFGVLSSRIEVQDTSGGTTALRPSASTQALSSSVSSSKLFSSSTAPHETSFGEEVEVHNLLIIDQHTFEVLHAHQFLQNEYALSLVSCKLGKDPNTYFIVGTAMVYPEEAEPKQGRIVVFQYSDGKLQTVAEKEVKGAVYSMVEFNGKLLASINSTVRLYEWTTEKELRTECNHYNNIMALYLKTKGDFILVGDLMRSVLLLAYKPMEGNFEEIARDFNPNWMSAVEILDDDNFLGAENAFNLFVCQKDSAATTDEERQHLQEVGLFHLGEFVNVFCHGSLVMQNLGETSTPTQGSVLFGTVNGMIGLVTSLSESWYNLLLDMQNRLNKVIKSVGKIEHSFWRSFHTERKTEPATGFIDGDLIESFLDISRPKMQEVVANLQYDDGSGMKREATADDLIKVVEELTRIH
Chain of IKZF1 (Q13422 whole entry): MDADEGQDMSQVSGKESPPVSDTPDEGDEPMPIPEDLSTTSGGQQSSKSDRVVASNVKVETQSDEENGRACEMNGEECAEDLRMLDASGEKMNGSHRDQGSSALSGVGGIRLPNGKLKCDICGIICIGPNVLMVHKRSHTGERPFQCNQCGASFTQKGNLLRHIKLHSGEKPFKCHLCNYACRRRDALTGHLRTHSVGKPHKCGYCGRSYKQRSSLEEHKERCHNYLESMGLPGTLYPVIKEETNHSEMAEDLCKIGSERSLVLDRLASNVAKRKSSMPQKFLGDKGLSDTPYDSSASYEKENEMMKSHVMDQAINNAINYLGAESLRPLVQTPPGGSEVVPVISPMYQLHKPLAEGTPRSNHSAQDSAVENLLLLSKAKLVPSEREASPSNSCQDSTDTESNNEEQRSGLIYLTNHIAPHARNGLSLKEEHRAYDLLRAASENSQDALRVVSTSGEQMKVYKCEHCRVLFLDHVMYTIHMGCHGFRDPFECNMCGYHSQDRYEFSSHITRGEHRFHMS
Chain of IKZF1 (Q96SW2 whole entry): as the sequence (Q96SW2 whole entry) above
Chain of IKZF1 (Q16531 whole entry partner): as the sequence (Q16531 whole entry partner) above
Chain of GSPT1 (P15170 whole entry): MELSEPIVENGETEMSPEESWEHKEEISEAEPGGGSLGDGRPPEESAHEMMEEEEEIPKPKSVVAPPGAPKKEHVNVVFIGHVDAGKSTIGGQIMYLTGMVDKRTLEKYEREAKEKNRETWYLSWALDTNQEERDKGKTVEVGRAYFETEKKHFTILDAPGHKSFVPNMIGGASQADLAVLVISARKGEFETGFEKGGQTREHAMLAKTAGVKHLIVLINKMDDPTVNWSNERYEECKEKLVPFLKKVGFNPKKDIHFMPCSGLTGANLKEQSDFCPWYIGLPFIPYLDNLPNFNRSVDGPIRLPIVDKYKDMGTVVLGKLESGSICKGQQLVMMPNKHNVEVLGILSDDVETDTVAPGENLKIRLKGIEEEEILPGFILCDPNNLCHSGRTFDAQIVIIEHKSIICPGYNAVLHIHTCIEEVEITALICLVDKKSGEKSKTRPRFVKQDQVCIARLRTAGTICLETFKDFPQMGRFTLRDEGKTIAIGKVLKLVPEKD
Chain of GSPT1 (Q96SW2 whole entry): as the sequence (Q96SW2 whole entry) above
Chain of GSPT1 (Q16531 whole entry partner): as the sequence (Q16531 whole entry partner) above
Chain of human Cereblon WT GST-tagged protein (Q96SW2 whole entry): as the sequence (Q96SW2 whole entry) above

pIC50 [1]	SMILES	substrate protein remaining % IKZF1 (IKZF1)	substrate protein remaining % IKZF3 (IKZF3)	substrate protein remaining % GSPT1 (GSPT1)
6.00 to 6.30	CC1(C)CN(C(=O)c2ccc3c(c2)CN(C2CCC(=O)NC2=O)C3=O)CCN1C(c1ccccc1)c1ccccc1 (centres unmarked) [GT-06061, 3-(5-(4-benzhydryl-3,3-dimethylpiperazine-1-carbonyl)-1-oxoisoindolin-2-yl)piperidine-2,6-dione]	B (B represents substrate protein remaining % > 50%)	B (B represents substrate protein remaining % > 50%)	A (A represents 0% ≤ substrate protein remaining % ≤ 50%)
6.00 to 6.30	O=C1CCC(N2Cc3cc(C(=O)N4CCC5(CCN(C(c6ccccc6)c6ccccc6)CC5)C4)ccc3C2=O)C(=O)N1 (centres unmarked) [GT-06063, 3-(5-(8-benzhydryl-2,8-diazaspiro[4.5]decane-2-carbonyl)-1-oxoisoindolin-2-yl)piperidine-2,6-dione]	B (B represents substrate protein remaining % > 50%)	B (B represents substrate protein remaining % > 50%)	A (A represents 0% ≤ substrate protein remaining % ≤ 50%)
> 6.30	O=C1CCC(N2Cc3cc(C(=O)N4CCC5(CC4)CCN(C(c4ccccc4)c4ccccc4)CC5)ccc3C2=O)C(=O)N1 (centres unmarked) [GT-06065, 3-(5-(9-benzhydryl-3,9-diazaspiro[5.5]undecane-3-carbonyl)-1-oxoisoindolin-2-yl)piperidine-2,6-dione]	B (B represents substrate protein remaining % > 50%)	B (B represents substrate protein remaining % > 50%)	A (A represents 0% ≤ substrate protein remaining % ≤ 50%)
6.00 to 6.30	O=C1CCC(N2Cc3cc(C(=O)N4CC5CN(C(c6ccccc6)c6ccccc6)CC5C4)ccc3C2=O)C(=O)N1 (centres unmarked) [GT-06067, 3-(5-(5-benzhydryloctahydropyrrolo[3,4-c]pyrrole-2-carbonyl)-1-oxoisoindolin-2-yl)piperidine-2,6-dione]	B (B represents substrate protein remaining % > 50%)	B (B represents substrate protein remaining % > 50%)	A (A represents 0% ≤ substrate protein remaining % ≤ 50%)
6.00 to 6.30	O=C1CCC(N2Cc3cc(C(=O)N4CCN(C(c5ccccc5)c5ccccc5)CC4C(F)(F)F)ccc3C2=O)C(=O)N1 (centres unmarked) [GT-06071, 3-(5-(4-benzhydryl-2-(trifluoromethyl)piperazine-1-carbonyl)-1-oxoisoindolin-2-yl)piperidine-2,6-dione]	B (B represents substrate protein remaining % > 50%)	B (B represents substrate protein remaining % > 50%)	A (A represents 0% ≤ substrate protein remaining % ≤ 50%)
5.72 to 6.00	O=C1CCC(N2Cc3cc(C(=O)N4CCN(C(c5ccccc5)c5ccccc5)CC4C(F)(F)F)cc(F)c3C2=O)C(=O)N1 (centres unmarked) [GT-06090, 3-(5-(4-benzhydryl-2-(trifluoromethyl)piperazine-1-carbonyl)-7-fluoro-1-oxoisoindolin-2-yl)piperidine-2,6-dione]	B (B represents substrate protein remaining % > 50%)	B (B represents substrate protein remaining % > 50%)	A (A represents 0% ≤ substrate protein remaining % ≤ 50%)
> 6.30	C[C@@H]1CN(C(c2ccccc2)c2ccccc2)CCN1C(=O)c1ccc2c(c1)CN(C1CCC(=O)NC1=O)C2=O (stereo partly drawn) [GT-06092, 3-(5-((R)-4-benzhydryl-2-methylpiperazine-1-carbonyl)-1-oxoisoindolin-2-yl)piperidine-2,6-dione]	B (B represents substrate protein remaining % > 50%)	B (B represents substrate protein remaining % > 50%)	A (A represents 0% ≤ substrate protein remaining % ≤ 50%)
6.00 to 6.30	C[C@@H]1CN(C(c2ccccc2)c2ccccc2)CCN1C(=O)c1cc(F)c2c(c1)CN(C1CCC(=O)NC1=O)C2=O (stereo partly drawn) [GT-06093, 3-(5-((R)-4-benzhydryl-2-methylpiperazine-1-carbonyl)-7-fluoro-1-oxoisoindolin-2-yl)piperidine-2,6-dione]	B (B represents substrate protein remaining % > 50%)	B (B represents substrate protein remaining % > 50%)	A (A represents 0% ≤ substrate protein remaining % ≤ 50%)
6.00 to 6.30	O=C1CCC(N2Cc3cc(CN4CCN(C(c5ccccc5)c5ccccc5)CC4C(F)(F)F)ccc3C2=O)C(=O)N1 (centres unmarked) [GT-06095, 3-(5-((4-benzhydryl-2-(trifluoromethyl)piperazin-1-yl)methyl)-1-oxoisoindolin-2-yl)piperidine-2,6-dione]	B (B represents substrate protein remaining % > 50%)	B (B represents substrate protein remaining % > 50%)	A (A represents 0% ≤ substrate protein remaining % ≤ 50%)
6.00 to 6.30	O=C1CCC(N2Cc3c(ccc(CN4CCN(C(c5ccccc5)c5ccccc5)CC4C(F)(F)F)c3F)C2=O)C(=O)N1 (centres unmarked) [GT-06096, 3-(5-((4-benzhydryl-2-(trifluoromethyl)piperazin-1-yl)methyl)-4-fluoro-1-oxoisoindolin-2-yl)piperidine-2,6-dione]	B (B represents substrate protein remaining % > 50%)	A (A represents 0% ≤ substrate protein remaining % ≤ 50%)	A (A represents 0% ≤ substrate protein remaining % ≤ 50%)
6.00 to 6.30	O=C1CCC(N2Cc3cc(CN4CCN(C(c5ccccc5)c5ccccc5)CC4C(F)(F)F)c(F)cc3C2=O)C(=O)N1 (centres unmarked) [GT-06097, 3-(5-((4-benzhydryl-2-(trifluoromethyl)piperazin-1-yl)methyl)-6-fluoro-1-oxoisoindolin-2-yl)piperidine-2,6-dione]	B (B represents substrate protein remaining % > 50%)	B (B represents substrate protein remaining % > 50%)	A (A represents 0% ≤ substrate protein remaining % ≤ 50%)
5.72 to 6.00	O=C1CCC(N2C(=O)c3ccc(CN4CCN(C(c5ccccc5)c5cccnc5)CC4)cc3C2=O)C(=O)N1 (centres unmarked) [GT-06114, 2-(2,6-dioxopiperidin-3-yl)-5-((4-(phenyl(pyridin-3-yl)methyl)piperazin-1-yl)methyl) isoindoline-1,3-dione]	B (B represents substrate protein remaining % > 50%)	B (B represents substrate protein remaining % > 50%)	A (A represents 0% ≤ substrate protein remaining % ≤ 50%)
6.00 to 6.30	O=C1CCC(N2Cc3cccc(CN4CCN(C(c5cccc(F)c5)c5cccc(F)c5)CC4)c3C2=O)C(=O)N1 (centres unmarked) [GT-06117, 3-(7-((4-(bis(3-fluorophenyl)methyl)piperazin-1-yl)methyl)-1-oxoisoindolin-2-yl)piperidine-2,6-dione]	B (B represents substrate protein remaining % > 50%)	B (B represents substrate protein remaining % > 50%)	A (A represents 0% ≤ substrate protein remaining % ≤ 50%)
6.00 to 6.30	O=C1CCC(N2C(=O)c3ccc(C(=O)N4CCN(C(c5ccccc5F)c5ccccc5F)CC4)cc3C2=O)C(=O)N1 (centres unmarked) [GT-06141, 5-(4-(bis(2-fluorophenyl)methyl)piperazine-1-carbonyl)-2-(2,6-dioxopiperidin-3-yl) isoindoline-1,3-dione]	B (B represents substrate protein remaining % > 50%)	B (B represents substrate protein remaining % > 50%)	A (A represents 0% ≤ substrate protein remaining % ≤ 50%)
6.00 to 6.30	O=C1CCC(N2Cc3cc(C(=O)N4CCN(C(c5ccccc5)c5cccnc5)CC4)ccc3C2=O)C(=O)N1 (centres unmarked) [GT-06142, 3-(1-oxo-5-(4-(phenyl(pyridin-3-yl)methyl)piperazine-1-carbonyl)isoindolin-2-yl)piperidine-2,6-dione]	B (B represents substrate protein remaining % > 50%)	B (B represents substrate protein remaining % > 50%)	A (A represents 0% ≤ substrate protein remaining % ≤ 50%)
> 6.30	O=C1CCC(N2Cc3cc(C(=O)N4CCN(C(c5cccc(F)c5)c5cccc(F)c5)CC4)cc(F)c3C2=O)C(=O)N1 (centres unmarked) [GT-06147, 3-(5-(4-(bis(3-fluorophenyl)methyl)piperazine-1-carbonyl)-7-fluoro-1-oxoisoindolin-2-yl)piperidine-2,6-dione]	B (B represents substrate protein remaining % > 50%)	B (B represents substrate protein remaining % > 50%)	A (A represents 0% ≤ substrate protein remaining % ≤ 50%)
> 6.30	O=C1CCC(N2Cc3c(C(=O)N4CCN(C(c5cccc(F)c5)c5cccc(F)c5)CC4)cccc3C2=O)C(=O)N1 (centres unmarked) [GT-06148, 3-(4-(4-(bis(3-fluorophenyl)methyl)piperazine-1-carbonyl)-1-oxoisoindolin-2-yl)piperidine-2,6-dione]	B (B represents substrate protein remaining % > 50%)	B (B represents substrate protein remaining % > 50%)	A (A represents 0% ≤ substrate protein remaining % ≤ 50%)

Source: US20250320193A1, “OXOISOINDOLINYL SUBSTITUTED PIPERIDINEDIONE DERIVATIVE AND USE THEREOF” (GLUETACS THERAPEUTICS (SHANGHAI) CO., LTD., priority 2022, published 2025)
